ChEMBL document CHEMBL1201862, “PubChem BioAssay data set” (2004)
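The compound was tested at five concentrations on cells cultured in 96-well plates, with a 48-hour exposure period. At the GI50, growth is halved.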 Calls of active or inactive are those of the source. Cut-off read from the data, not from the text of the source: active = GI50 up to about 1.1 µM and inactive = higher.

Columns and labels:
Assay in all cases: growth of human tumour cells (NCI), 48 h
[1] = test system: 786-0
[2] = test system: EKVX
[3] = test system: HCC 2998
[4] = test system: HCT-15
[5] = test system: NCI-H226
[6] = test system: NCI-H460
[7] = test system: OVCAR-3
[8] = test system: OVCAR-5
[9] = test system: RPMI-8226
[10] = test system: RXF 393
[11] = test system: SF-295
[12] = test system: SK-MEL-28
[13] = test system: SK-MEL-5
[14] = test system: SNB-75
[15] = test system: TK-10
[16] = test system: UO-31

| SMILES | GI50 [1] | GI50 [2] | GI50 [3] | GI50 [4] | GI50 [5] | GI50 [6] | GI50 [7] | GI50 [8] | GI50 [9] | GI50 [10] | GI50 [11] | GI50 [12] | GI50 [13] | GI50 [14] | GI50 [15] | GI50 [16] |
| --- | --- | --- | --- | --- | --- | --- | --- | --- | --- | --- | --- | --- | --- | --- | --- | --- |
| CCN1CCC(O)(c2ccccc2)C(C(=O)c2ccccc2)C1 (configuration not stated) | 17.1 µM (inactive) | > 49.2 µM (inactive) | > 100 µM (inactive) | 26.9 µM | > 54.1 µM (inactive) | > 100 µM (inactive) | 16.3 µM (inactive) | 18.2 µM (inactive) | 6.35 µM (inactive) | 15.5 µM (inactive) | > 65.6 µM (inactive) | 17.9 µM (inactive) | 33.7 µM (inactive) | > 89.3 µM (inactive) | 23.2 µM (inactive) | > 46.2 µM (inactive) |
| NCC1(N2CCOCC2)C2CCCC21CNc1ccccc1 (configuration not stated) | > 100 µM (inactive) |  | 61 µM (inactive) |  |  | > 100 µM (inactive) | > 100 µM (inactive) | > 100 µM (inactive) |  | 56.4 µM (inactive) | > 100 µM (inactive) | > 100 µM (inactive) | > 100 µM (inactive) | 57.9 µM (inactive) | > 100 µM (inactive) | > 100 µM (inactive) |
| Cc1cc2c(=O)c(C)n[nH]c2c(C#N)c1C | > 100 µM (inactive) | > 100 µM (inactive) | > 100 µM (inactive) | > 100 µM | > 100 µM (inactive) | > 100 µM (inactive) | > 100 µM (inactive) | > 100 µM (inactive) | > 100 µM (inactive) | > 100 µM (inactive) | > 100 µM (inactive) | > 100 µM (inactive) |  | > 100 µM (inactive) | > 100 µM (inactive) | > 100 µM (inactive) |
| CSC1=Nc2ccccc2N=C(c2ccc(Cl)cc2)C1 | 30.3 µM (inactive) | 20.5 µM (inactive) | > 10 µM (inactive) | 26.9 µM | > 100 µM (inactive) | 40.2 µM (inactive) | 33.3 µM (inactive) | 27.8 µM (inactive) | 33.4 µM (inactive) | 20.4 µM (inactive) | 43.9 µM (inactive) | 42 µM (inactive) | 24.2 µM (inactive) |  |  | 24.5 µM (inactive) |
| C=C(C#N)C1OCC2OC(C)(C)OC21 (configuration not stated) | 20.2 µM (inactive) | 24.4 µM (inactive) | 26.7 µM (inactive) | 16.9 µM |  | 24.9 µM (inactive) | 21.7 µM (inactive) | 19.8 µM (inactive) |  | 16.7 µM (inactive) | 45.9 µM (inactive) | 21.1 µM (inactive) | 17.3 µM (inactive) | 20.1 µM (inactive) | 34 µM (inactive) | 40.5 µM (inactive) |
| CC1=NN(C(=O)CC(=O)Nc2ccccc2F)C(=O)C1/N=N/c1ccccc1[N+](=O)[O-] (configuration not stated) | > 100 µM (inactive) | 26.5 µM (inactive) |  | > 100 µM | > 100 µM (inactive) |  | 96.4 µM (inactive) | > 100 µM (inactive) | > 100 µM (inactive) | 45.1 µM (inactive) | > 100 µM (inactive) | > 100 µM (inactive) | 17.9 µM (inactive) | > 100 µM (inactive) | > 100 µM (inactive) | 81.1 µM (inactive) |
| C=C1CN2CCc3c([nH]c4ccccc34)C2CC1CC(=O)N(C)C (configuration not stated) | > 309 µM (inactive) | > 309 µM (inactive) | > 309 µM (inactive) | > 309 µM | > 309 µM (inactive) | > 309 µM (inactive) | > 309 µM (inactive) |  | > 309 µM (inactive) | > 309 µM (inactive) | > 309 µM (inactive) | > 309 µM (inactive) | > 309 µM (inactive) |  | > 309 µM (inactive) |  |
| COC(=O)CC(NC(=O)OCc1ccccc1)C(C(C)=O)C(=O)OCc1ccccc1 (configuration not stated) | > 31.6 µM (inactive) | > 31.6 µM (inactive) | > 10 µM (inactive) | > 31.6 µM | > 10 µM (inactive) | > 31.6 µM (inactive) | > 31.6 µM (inactive) | > 100 µM (inactive) | > 31.6 µM (inactive) | > 10 µM (inactive) | > 100 µM (inactive) | > 31.6 µM (inactive) | > 31.6 µM (inactive) | 20.2 µM (inactive) | > 31.6 µM (inactive) | > 31.6 µM (inactive) |
| O=C(O)CC12C3C4C5C3C1C5C42 (configuration not stated) | > 100 µM (inactive) | > 100 µM (inactive) | > 100 µM (inactive) | > 100 µM |  | > 100 µM (inactive) | > 100 µM (inactive) | > 100 µM (inactive) | > 100 µM (inactive) |  | > 100 µM (inactive) | > 100 µM (inactive) | > 100 µM (inactive) | 76.2 µM (inactive) | > 100 µM (inactive) | 68.9 µM (inactive) |
| CCCCCCCCCCCCCC1CCC(CC)N1 (configuration not stated) | 17.5 µM (inactive) | 16.9 µM (inactive) | 2.41 µM (inactive) | 6.52 µM | 15.3 µM (inactive) | 2.12 µM (inactive) | 16.2 µM (inactive) | 16.6 µM (inactive) | 14 µM (inactive) | 17.9 µM (inactive) | 18.6 µM (inactive) | 7.66 µM (inactive) | 17.8 µM (inactive) | 7.28 µM (inactive) | 17.7 µM (inactive) | 14.2 µM (inactive) |
| CC(=O)OC1COC(n2ccc3cc(Br)c([N+](=O)[O-])cc32)C(OC(C)=O)C1OC(C)=O (configuration not stated) | 33.3 µM (inactive) | 39.4 µM (inactive) | 24 µM (inactive) | 30.9 µM | 14.5 µM (inactive) | 22 µM (inactive) | 23.8 µM (inactive) |  | 22.5 µM (inactive) | 24.7 µM (inactive) | 20.9 µM (inactive) | 27.4 µM (inactive) | > 10 µM (inactive) | 23.1 µM (inactive) | 27 µM (inactive) | 12.6 µM (inactive) |
| CC1(Cl)C(=O)NC(=O)N(C2CC(N=[N+]=[N-])C(CO)O2)C1N=[N+]=[N-] (configuration not stated) | > 100 µM (inactive) | > 100 µM (inactive) | > 100 µM (inactive) | > 100 µM |  | > 100 µM (inactive) | > 100 µM (inactive) | > 100 µM (inactive) | > 100 µM (inactive) | > 100 µM (inactive) | > 100 µM (inactive) | > 100 µM (inactive) | > 100 µM (inactive) | > 100 µM (inactive) | > 100 µM (inactive) | > 100 µM (inactive) |
| CCOC(=O)C(CNc1ccc(O)cc1)NC(=O)c1ccccc1 (configuration not stated) | 64.3 µM (inactive) | > 100 µM (inactive) | > 100 µM (inactive) | > 100 µM | > 100 µM (inactive) | > 100 µM (inactive) | > 100 µM (inactive) | > 100 µM (inactive) | 53.6 µM (inactive) | > 100 µM (inactive) | > 100 µM (inactive) | > 100 µM (inactive) | > 100 µM (inactive) | > 100 µM (inactive) | > 100 µM (inactive) | > 100 µM (inactive) |
| CC(=O)/C(=C\c1ccco1)C(=O)Nc1ccccc1 | > 100 µM (inactive) | > 100 µM (inactive) | > 100 µM (inactive) | > 100 µM |  | > 100 µM (inactive) | > 100 µM (inactive) |  | > 100 µM (inactive) | > 100 µM (inactive) | > 100 µM (inactive) | > 100 µM (inactive) | > 100 µM (inactive) |  | > 100 µM (inactive) | > 100 µM (inactive) |
| O=C/C1=C/C2=Cc3ccccc3C=C(/C=C(/C=O)C1)C2 | 78.2 µM (inactive) | > 100 µM (inactive) | 45.9 µM (inactive) | 31.4 µM | 43.2 µM (inactive) | 81.1 µM (inactive) | 37.5 µM (inactive) | > 100 µM (inactive) | 32 µM (inactive) | 28.1 µM (inactive) | 29 µM (inactive) | 39.6 µM (inactive) | 35.3 µM (inactive) | 27.2 µM (inactive) | > 100 µM (inactive) | 34 µM (inactive) |
| CCN(CC)c1c(C)nnn1C1OC(COC(C)=O)C(OC(C)=O)C(OC(C)=O)C1OC(C)=O (configuration not stated) | > 100 µM (inactive) | > 100 µM (inactive) | > 100 µM (inactive) | 38.6 µM | > 100 µM (inactive) | > 100 µM (inactive) | > 100 µM (inactive) | > 100 µM (inactive) | 28.6 µM (inactive) |  | > 100 µM (inactive) | > 100 µM (inactive) | > 100 µM (inactive) | > 100 µM (inactive) | > 100 µM (inactive) | > 100 µM (inactive) |
| O=C1OC(c2ccccc2)=N/C1=C/N1CCCC1C(=O)O (configuration not stated) | > 100 µM (inactive) | > 100 µM (inactive) | > 100 µM (inactive) | > 100 µM | > 100 µM (inactive) | > 100 µM (inactive) | > 100 µM (inactive) | > 100 µM (inactive) | > 100 µM (inactive) | > 100 µM (inactive) | > 100 µM (inactive) | > 100 µM (inactive) | > 100 µM (inactive) | > 100 µM (inactive) | > 100 µM (inactive) | > 100 µM (inactive) |
| NNC(=O)C1CCC(=O)N1S(=O)(=O)c1ccccc1 (configuration not stated) | > 100 µM (inactive) | > 100 µM (inactive) | > 100 µM (inactive) | > 100 µM | > 100 µM (inactive) | > 100 µM (inactive) | > 100 µM (inactive) | > 100 µM (inactive) | > 100 µM (inactive) | > 100 µM (inactive) | > 100 µM (inactive) | > 100 µM (inactive) | > 100 µM (inactive) | > 100 µM (inactive) | > 100 µM (inactive) | > 100 µM (inactive) |
| CO[C@@H]1C=C[C@@]23c4cc5c(cc4CN(C[C@@H]2O)[C@H]3C1)OCO5 [(+)-HAEMANTHAMINE] | 20.1 µM (inactive) | 38 µM (inactive) | 15.6 µM (inactive) | 17.4 µM | 25.4 µM (inactive) | 15.7 µM (inactive) | 46.6 µM (inactive) | 41.9 µM (inactive) | 29.6 µM (inactive) | 18.7 µM (inactive) | 19.1 µM (inactive) | 18.9 µM (inactive) | > 10 µM (inactive) | 9.06 µM (inactive) | 30.8 µM (inactive) | 16.5 µM (inactive) |
